From the supplement of paper PMC10307832

What was measured:
Test in all cases: relative viability (nuclei count vs DMSO), 5 days (fraction); higher = more cells survive
H3255 = system: H3255
Summary of the method: (§1)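 Lung cancer cell lines in 1536-well plates were dosed by pin tool the day after seeding, either with one drug alone or with a fixed anchor-drug dose plus five library-drug doses (not always all listed) in √10 steps. After 5 days, cells were fixed and their nuclei stained in one step (final 0.05% Triton X-100, 1% formaldehyde, 1 ug/ml Hoechst), then counted on 4× images. Relative viability is the nuclei count in treated wells divided by that in vehicle wells. Values are medians of duplicate plates.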

NCI-H2087 = system: NCI-H2087
Summary of the method: as §1

NCI-H2023 = system: NCI-H2023
Summary of the method: as §1

PC-3 [JPC-3] = system: PC-3 [JPC-3]
Summary of the method: as §1

NCI-H650 = system: NCI-H650
Summary of the method: as §1

LC-2-ad = system: LC-2-ad
Summary of the method: as §1

CAL-12T = system: CAL-12T
Summary of the method: as §1

201T = system: 201T
Summary of the method: as §1

ABC-1 = system: ABC-1
Summary of the method: as §1

NCI-H1650 = system: NCI-H1650
Summary of the method: as §1

NCI-H661 = system: NCI-H661
Summary of the method: as §1

NCI-H441 = system: NCI-H441
Summary of the method: as §1

NCI-H520 = system: NCI-H520
Summary of the method: as §1

NCI-H460 = system: NCI-H460
Summary of the method: as §1

NCI-H727 = system: NCI-H727
Summary of the method: as §1

NCI-H1944 = system: NCI-H1944
Summary of the method: as §1

BEN = system: BEN
Summary of the method: as §1

NCI-H1915 = system: NCI-H1915
Summary of the method: as §1

LCLC-97TM1 = system: LCLC-97TM1
Summary of the method: as §1

NCI-H1651 = system: NCI-H1651
Summary of the method: as §1

A-427 = system: A-427
Summary of the method: as §1

O=c1cc(N2CCOCC2)oc2c(-c3cccc4c3sc3ccccc34)cccc12 + CC(=O)c1c(C)c2cnc(Nc3ccc(N4CCNCC4)cn3)nc2n(C2CCCC2)c1=O [Palbociclib] (partner 0.5 µM)
relative viability (H3255; first compound 0.01 µM): 0.314 | relative viability (H3255; first compound 0.03162 µM): 0.325 | relative viability (H3255; first compound 0.1 µM): 0.306 | relative viability (H3255; first compound 0.3162 µM): 0.314 | relative viability (H3255; first compound 1 µM): 0.312 | relative viability (NCI-H2087; first compound 0.01 µM): 0.218 | relative viability (NCI-H2087; first compound 0.03162 µM): 0.245 | relative viability (NCI-H2087; first compound 0.1 µM): 0.221 | relative viability (NCI-H2087; first compound 0.3162 µM): 0.229 | relative viability (NCI-H2087; first compound 1 µM): 0.217 | relative viability (NCI-H2023; first compound 0.01 µM): 0.436 | relative viability (NCI-H2023; first compound 0.03162 µM): 0.325 | relative viability (NCI-H2023; first compound 0.1 µM): 0.462 | relative viability (NCI-H2023; first compound 0.3162 µM): 0.337 | relative viability (NCI-H2023; first compound 1 µM): 0.346 | relative viability (PC-3 [JPC-3]; first compound 0.01 µM): 0.548 | relative viability (PC-3 [JPC-3]; first compound 0.03162 µM): 0.519 | relative viability (PC-3 [JPC-3]; first compound 0.1 µM): 0.306 | relative viability (PC-3 [JPC-3]; first compound 0.3162 µM): 0.557 | relative viability (PC-3 [JPC-3]; first compound 1 µM): 0.511 | relative viability (NCI-H650; first compound 0.01 µM): 0.348 | relative viability (NCI-H650; first compound 0.03162 µM): 0.383 | relative viability (NCI-H650; first compound 0.3162 µM): 0.356 | relative viability (NCI-H650; first compound 1 µM): 0.347 | relative viability (LC-2-ad; first compound 0.01 µM): 0.504 | relative viability (LC-2-ad; first compound 0.03162 µM): 0.5 | relative viability (LC-2-ad; first compound 0.1 µM): 0.572 | relative viability (LC-2-ad; first compound 0.3162 µM): 0.493 | relative viability (LC-2-ad; first compound 1 µM): 0.554 | relative viability (CAL-12T; first compound 0.01 µM): 0.444 | relative viability (CAL-12T; first compound 0.03162 µM): 0.401 | relative viability (CAL-12T; first compound 0.1 µM): 0.587 | relative viability (CAL-12T; first compound 0.3162 µM): 0.528 | relative viability (CAL-12T; first compound 1 µM): 0.436 | relative viability (201T; first compound 0.01 µM): 0.346 | relative viability (201T; first compound 0.03162 µM): 0.356 | relative viability (201T; first compound 0.1 µM): 0.356 | relative viability (201T; first compound 0.3162 µM): 0.342 | relative viability (201T; first compound 1 µM): 0.353 | relative viability (ABC-1; first compound 0.01 µM): 0.644 | relative viability (ABC-1; first compound 0.03162 µM): 0.797 | relative viability (ABC-1; first compound 0.1 µM): 0.699 | relative viability (ABC-1; first compound 0.3162 µM): 0.619 | relative viability (ABC-1; first compound 1 µM): 0.578 | relative viability (NCI-H1650; first compound 0.01 µM): 0.299 | relative viability (NCI-H1650; first compound 0.03162 µM): 0.363 | relative viability (NCI-H1650; first compound 0.1 µM): 0.346 | relative viability (NCI-H1650; first compound 0.3162 µM): 0.368 | relative viability (NCI-H1650; first compound 1 µM): 0.317 | relative viability (NCI-H661; first compound 0.01 µM): 0.417 | relative viability (NCI-H661; first compound 0.03162 µM): 0.41 | relative viability (NCI-H661; first compound 0.1 µM): 0.375 | relative viability (NCI-H661; first compound 0.3162 µM): 0.416 | relative viability (NCI-H661; first compound 1 µM): 0.398 | relative viability (NCI-H441; first compound 0.01 µM): 0.21 | relative viability (NCI-H441; first compound 0.03162 µM): 0.217 | relative viability (NCI-H441; first compound 0.1 µM): 0.207 | relative viability (NCI-H441; first compound 0.3162 µM): 0.233 | relative viability (NCI-H441; first compound 1 µM): 0.222 | relative viability (NCI-H520; first compound 0.01 µM): 0.238 | relative viability (NCI-H520; first compound 0.03162 µM): 0.224 | relative viability (NCI-H520; first compound 0.1 µM): 0.207 | relative viability (NCI-H520; first compound 0.3162 µM): 0.235 | relative viability (NCI-H520; first compound 1 µM): 0.202 | relative viability (NCI-H460; first compound 0.01 µM): 0.178 | relative viability (NCI-H460; first compound 0.03162 µM): 0.18 | relative viability (NCI-H460; first compound 0.1 µM): 0.198 | relative viability (NCI-H460; first compound 0.3162 µM): 0.215 | relative viability (NCI-H460; first compound 1 µM): 0.135 | relative viability (NCI-H727; first compound 0.01 µM): 0.66 | relative viability (NCI-H727; first compound 0.03162 µM): 0.6 | relative viability (NCI-H727; first compound 0.1 µM): 0.624 | relative viability (NCI-H727; first compound 0.3162 µM): 0.699 | relative viability (NCI-H727; first compound 1 µM): 0.737 | relative viability (NCI-H1944; first compound 0.01 µM): 0.331 | relative viability (NCI-H1944; first compound 0.03162 µM): 0.332 | relative viability (NCI-H1944; first compound 0.1 µM): 0.363 | relative viability (NCI-H1944; first compound 0.3162 µM): 0.338 | relative viability (NCI-H1944; first compound 1 µM): 0.32 | relative viability (BEN; first compound 0.01 µM): 0.427 | relative viability (BEN; first compound 0.03162 µM): 0.476 | relative viability (BEN; first compound 0.1 µM): 0.476 | relative viability (BEN; first compound 0.3162 µM): 0.514 | relative viability (BEN; first compound 1 µM): 0.506 | relative viability (NCI-H1915; first compound 0.01 µM): 0.529 | relative viability (NCI-H1915; first compound 0.03162 µM): 0.555 | relative viability (NCI-H1915; first compound 0.1 µM): 0.61 | relative viability (NCI-H1915; first compound 0.3162 µM): 0.461 | relative viability (NCI-H1915; first compound 1 µM): 0.526 | relative viability (LCLC-97TM1; first compound 0.01 µM): 0.218 | relative viability (LCLC-97TM1; first compound 0.03162 µM): 0.194 | relative viability (LCLC-97TM1; first compound 0.1 µM): 0.241 | relative viability (LCLC-97TM1; first compound 0.3162 µM): 0.21 | relative viability (LCLC-97TM1; first compound 1 µM): 0.218 | relative viability (NCI-H1651; first compound 0.01 µM): 0.528 | relative viability (NCI-H1651; first compound 0.03162 µM): 0.486 | relative viability (NCI-H1651; first compound 0.1 µM): 0.555 | relative viability (NCI-H1651; first compound 0.3162 µM): 0.555 | relative viability (NCI-H1651; first compound 1 µM): 0.513 | relative viability (A-427; first compound 0.01 µM): 0.533 | relative viability (A-427; first compound 0.03162 µM): 0.52 | relative viability (A-427; first compound 0.1 µM): 0.528 | relative viability (A-427; first compound 0.3162 µM): 0.508 | relative viability (A-427; first compound 1 µM): 0.513
